What is called EC50 is the concentration needed to bring the measured effect to its halfway point. High values mean a less potent agent, low ones a more potent agent.

Counter-ions that a name gives are not always drawn. Some results are limits rather than exact numbers.

Consider 62 molecules from BindingDB's records for doi:10.7270/Q2TX3CTT (Broad Institute, 2010).

Sequence of Glycogen synthase kinase-3 beta (P49841 whole entry): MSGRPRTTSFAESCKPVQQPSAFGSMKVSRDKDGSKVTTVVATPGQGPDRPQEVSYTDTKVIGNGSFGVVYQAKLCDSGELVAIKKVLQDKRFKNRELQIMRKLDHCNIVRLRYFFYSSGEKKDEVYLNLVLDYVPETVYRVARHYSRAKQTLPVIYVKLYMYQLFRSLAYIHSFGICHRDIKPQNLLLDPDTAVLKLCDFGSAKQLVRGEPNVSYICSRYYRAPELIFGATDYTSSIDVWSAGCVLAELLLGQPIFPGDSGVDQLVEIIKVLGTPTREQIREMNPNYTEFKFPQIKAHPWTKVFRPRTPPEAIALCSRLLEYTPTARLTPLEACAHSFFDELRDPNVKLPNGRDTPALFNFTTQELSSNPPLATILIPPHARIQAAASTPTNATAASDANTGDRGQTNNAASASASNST

The test concerns the target Glycogen synthase kinase-3 beta (Homo sapiens, UniProt P49841). Description: GSK3beta kinase inhibitor potency, dose response, biochemical, luminescence, cell-free homogeneous, retest (AID 434954).
`Cc1cc(N2CCC(C)CC2)nc(-c2ccccc2O)n1` [(6E)-6-[6-methyl-4-(4-methyl-1-piperidinyl)-1H-pyrimidin-2-ylidene]-1-cyclohexa-2,4-dienone] gave a 50% effective concentration (EC50) above 300 µM.
With `CCN(CC)CCN1C(=O)C(=O)C(C(=O)c2ccc(S(=O)(=O)N3CCOCC3)cc2)C1c1ccccc1` (configuration not stated) [(4E)-1-[2-(diethylamino)ethyl]-4-[hydroxy-[4-(4-morpholinylsulfonyl)phenyl]methylidene]-5-phenylpyrrolidine-2,3-dione] the figure was above 300 µM; with `Clc1ccccc1CSc1nnc(-c2ccncc2)o1` [2-{[(2-chlorophenyl)methyl]sulfanyl}-5-(pyridin-4-yl)-1,3,4-oxadiazole], 4.85 µM.
The value for `Cc1ccc(NS(=O)(=O)c2cccc(C(=O)NN=Cc3c(C)nn(-c4ccccc4)c3N3CCCC3)c2)c(C)c1` [MLS000394744] was above 300 µM; that for `CCCNCC1COc2ccccc2O1` (configuration not stated) [2,3-dihydro-1,4-benzodioxin-3-ylmethyl(propyl)amine;hydrochloride] was above 300 µM; that for `Nc1nc(NCCOCCO)nc(NC2CCCCC2)c1[N+](=O)[O-]` [SMR000540405] was 3.01 µM.
With `O=[N+]([O-])c1cc([N+](=O)[O-])c(N2CCCCCC2)cc1NCCO` the figure was 5.63 µM.
In the case of `CCOC(=O)CSc1ccc2nnc(-c3cccs3)n2n1` [ethyl 2-[(3-thiophen-2-yl-[1,2,4]triazolo[4,3-b]pyridazin-6-yl)sulfanyl]ethanoate], the EC50 is 4.1 µM. This EC50 and that of the molecule before are within 1.5-fold of each other.
With `CN1CCN(c2ccc([N+](=O)[O-])cc2Cl)CC1` [SMR000283168] the figure was above 300 µM; with `NC(=O)c1ccc(Oc2ccc(Cl)c3ccccc23)c([N+](=O)[O-])c1` [4-(4-chloronaphthalen-1-yl)oxy-3-nitrobenzamide], above 300 µM.
With `O=C1/C(=C\c2ccc(O)cc2)SC(=S)N1Cc1ccccc1` [(5E)-5-[(4-hydroxyphenyl)methylidene]-3-(phenylmethyl)-2-sulfanylidene-1,3-thiazolidin-4-one] the figure was above 300 µM; with `c1cncc(-c2nc(NCC3CCCO3)c3ccccc3n2)c1` (configuration not stated), above 300 µM.
The value for `CCCOC(=O)c1ccc(O)cc1` [SMR000112070] was above 300 µM; that for `CCCCc1cc(=O)oc2cc(C)cc(OCc3nn[nH]n3)c12` [MLS000041678] was above 300 µM.
Molecule `O=C1NC(c2cccnc2)Nc2sc3c(c21)CCCC3` (configuration not stated) [SMR000114421] came in with an EC50 above 300 µM.
The value for `O=C(c1ccc(Cl)nc1)N1CCN(C/C=C/c2ccccc2)CC1` [SMR000352615] was above 300 µM.
With `CCOc1ccc(-c2nnc3ccc(SC)nn23)cc1` [SMR000028968] the figure was above 300 µM; with `CCC(C)Nc1nc(N)c([N+](=O)[O-])c(NCc2ccccc2)n1` (configuration not stated), 9.62 µM.
In turn, `O=C(CN1C(=O)COc2ccccc21)Nc1ccccc1F` [MLS001205921] yielded an EC50 above 300 µM.
`CCOC(=O)c1nnn(-c2nonc2N)c1CSc1nnc(N)s1` [MLS000624994] came in with an EC50 above 300 µM.
With `Fc1ccccc1CN=Nc1ncnc2nc[nH]c12` the figure was 11.2 µM; with `CN(C)c1nc2c(N)ncnc2n1[C@H]1O[C@@H](CO)[C@H](O)[C@@H]1O` [MLS001181978], above 300 µM.
Consider `O=C(Nc1ccncc1)Nc1ccncc1` [1,3-bis(4-pyridyl)urea], for which the EC50 was above 300 µM.
Consider `Cc1n[nH]c(O)c1N=Nc1ccc(S(N)(=O)=O)cc1` [4-[2-(3-methyl-5-oxopyrazol-4-yl)hydrazinyl]benzenesulfonamide], for which the EC50 is 36.6 µM.
With `O=c1cc(-c2ccccc2)c2c(O)cc(O)cc2o1` the figure was 7.82 µM.
In the case of `COc1ccc(C(C)(C)C)cc1NS(=O)(=O)c1cccc2cccnc12`, the EC50 was above 300 µM.
`O=C(O)C1C2C=CC(O2)C1C(=O)NCc1ccc(Cl)cc1` (configuration not stated) [3-{[(4-chlorobenzyl)amino]carbonyl}-7-oxabicyclo[2.2.1]hept-5-ene-2-carboxylic acid]: the EC50 was above 300 µM.
The value for `COc1ccc(C(=O)ON=C(N)c2ccccn2)cc1` [SMR000608101] was 13.2 µM.
With `C[C@H](C(O)c1ccccc1)N(C)C(=O)CN` (some centres not stated) [SMR000639412] the figure was above 300 µM; with `CC(=NNC(=O)c1ccc(C(=O)NN=C(C)c2ccco2)o1)c1ccco1` [N'~2~,N'~5~-bis[1-(2-furyl)ethylidene]-2,5-furandicarbohydrazide], above 300 µM.
The molecule `CCC1(CC)NC(=O)N(CC(=O)OCC(=O)Nc2sccc2C#N)C1=O` [[2-[(3-cyanothiophen-2-yl)amino]-2-oxoethyl] 2-(4,4-diethyl-2,5-dioxoimidazolidin-1-yl)acetate] gave an EC50 above 300 µM.
`O=c1c2c3c(sc2n2c(S)nnc2n1-c1ccccc1)CCC3` [MLS000779668] yielded an EC50 of 34 µM.
With `COc1ccc(CNC(=O)CN(Cc2ccccc2)C(=O)CCC(=O)Nc2ccccn2)cc1` the figure was 24.2 µM.
With `CCOc1ccc(CNC(=O)C2CCN(c3nnc(C)c4c(C)n(-c5ccc(C)cc5)nc34)CC2)cc1` [MLS001028751] the figure was above 300 µM; with `COC(=O)c1ccc2nc(NC(=O)C3CC3)sc2c1` [2-(cyclopropanecarbonylamino)-1,3-benzothiazole-6-carboxylic acid methyl ester], above 300 µM.
The value for `c1ccc2c(CSc3nnc(-c4ccncc4)o3)cccc2c1` [2-(naphthalen-1-ylmethylsulfanyl)-5-pyridin-4-yl-1,3,4-oxadiazole] was 29.1 µM.
With `Cc1ccc(OCC(=O)NN=C2SCC(=O)N2Cc2ccccc2)cc1` [2-(4-methylphenoxy)-N-[[4-oxo-3-(phenylmethyl)-2-thiazolidinylidene]amino]acetamide], the EC50 is above 300 µM.
The value for `CCOC(=O)CSc1ccc2nnc(-c3ccccc3)n2n1` [ethyl 2-[(3-phenyl-[1,2,4]triazolo[4,3-b]pyridazin-6-yl)sulfanyl]acetate] was 44.6 µM; that for `CCOC(=O)C1C(C)=Nc2ncnn2C1c1ccc(N(C)C)cc1` (configuration not stated) [ethyl 7-[4-(dimethylamino)phenyl]-5-methyl-1,7-dihydro-[1,2,4]triazolo[1,5-a]pyrimidine-6-carboxylate] was above 300 µM.
With `CC1(C)CC(=O)C2C(=Nc3ncnn3C2c2cccs2)C1` (configuration not stated) [SMR000291528] the figure was 57.1 µM.
With `COc1ccc(CCNC(=O)C(C(=O)c2ccccc2)n2cc(Cl)ccc2=O)cc1OC` (configuration not stated) [2-(5-chloro-2-oxopyridin-1-yl)-N-[2-(3,4-dimethoxyphenyl)ethyl]-3-oxo-3-phenylpropanamide] the figure was above 300 µM; with `CCn1nc(NC(=O)C2CCCO2)c2cc3cc(C)ccc3nc21` (configuration not stated) [N-(1-ethyl-6-methyl-pyrazolo[3,4-b]quinolin-3-yl)oxolane-2-carboxamide], above 300 µM; with `COc1cccc(C2CC(c3ccc(Cl)cc3)n3nc(N)nc3N2)c1` (configuration not stated) [7-(4-chlorophenyl)-5-(3-methoxyphenyl)-1,5,6,7-tetrahydro-[1,2,4]triazolo[1,5-a]pyrimidin-2-amine], above 300 µM.
In the case of `CCOC(=O)c1ccc2c(c1)[n+](CC)c(/C=C/N(C)c1ccccc1)n2CC` [MLS000561766], the EC50 was above 300 µM.
With `OC[C@H]1O[C@@H](n2cnc3c(O)ncnc32)[C@H](O)[C@@H]1O` [Atorel] the figure was above 300 µM.
The value for `CCOC(=O)C1C(C(F)(F)F)=Nc2ncnn2C1c1cc(OC)ccc1OC` (configuration not stated) was above 300 µM.
For `CCOC(=O)c1cnc2ccc(F)cc2c1Nc1ccc2c(c1)OCCO2` [SMR000198647], the EC50 was above 300 µM.
With `CCOC(=O)c1nnn(-c2nonc2N)c1-c1ccc(OC)cc1` [1-(4-amino-1,2,5-oxadiazol-3-yl)-5-(4-methoxyphenyl)-4-triazolecarboxylic acid ethyl ester] the figure was 14.4 µM.
With `CCOC(=O)c1sc(NC(=O)CSc2nnc(C(C)C)n2C)nc1C` [2-[2-(5-Isopropyl-4-methyl-4H-[1,2,4]triazol-3-ylsulfanyl)-acetylamino]-4-methyl-thiazole-5-carboxylic acid ethyl ester] the figure was 26 µM; with `NC(=O)c1ncn([C@@H]2O[C@H](CO)[C@@H](O)[C@H]2O)n1` [Tribavirin], above 300 µM; with `COc1ccc(CC(=O)Nc2nc(-c3ccccc3)c(C(C)=O)s2)cc1OC` [2-(3,4-dimethoxyphenyl)-N-(5-ethanoyl-4-phenyl-1,3-thiazol-2-yl)ethanamide], 7.48 µM.
With `COc1cccc(C(=O)Nc2nnc(C(C)C)s2)c1` [SMR000013475] the figure was above 300 µM; with `CC(C)OCCCN1CN(S(=O)(=O)c2cccc(Cl)c2)c2nc3ccccc3nc21` [1-(3-Chloro-benzenesulfonyl)-3-(3-isopropoxy-propyl)-2,3-dihydro-1H-imidazo[4,5-b]quinoxaline], above 300 µM; with `COc1cccc(C(=O)NCC(c2ccco2)N2CCc3ccccc3C2)c1` (configuration not stated) [N-[2-(3,4-dihydro-1H-isoquinolin-2-yl)-2-(furan-2-yl)ethyl]-3-methoxy-benzamide], above 300 µM.
`COc1ccc(N2CCN(CCNC(=O)c3nnc(Cc4c(F)cccc4Cl)o3)CC2)cc1` [MLS000083714] registered an EC50 above 300 µM.
The value for `COc1cccc2cc(C(=O)CS(=O)(=O)c3ccc(Cl)cc3)c(=O)oc12` [3-[2-(4-chlorophenyl)sulfonylethanoyl]-8-methoxy-chromen-2-one] was above 300 µM; that for `CC(=O)N1CCC(=O)Nc2ccc([N+](=O)[O-])cc21` [MLS000728217] was above 300 µM.
With `COc1ccc(Nc2nc(NCC3CCCO3)nc(N)c2[N+](=O)[O-])cc1` (configuration not stated) [N'-(4-Methoxy-phenyl)-5-nitro-N-(tetrahydro-furan-2-ylmethyl)-pyrimidine-2,4,6-triamine] the figure was above 300 µM; with `CCOC(=O)c1cnc2ccc(OC)cc2c1NCCc1ccc(OC)c(OC)c1`, above 300 µM; with `CCC1(C)NC(=O)N(CC(=O)Nc2sc3c(c2C(N)=O)CCC3)C1=O` (configuration not stated) [2-[2-[4-ethyl-4-methyl-2,5-bis(oxidanylidene)imidazolidin-1-yl]ethanoylamino]-5,6-dihydro-4H-cyclopenta[b]thiophene-3-carboxamide], 30.3 µM.
With `COc1cc(C(=O)Nc2cccc(-c3nc4ncccc4o3)c2C)cc(OC)c1OC` [MLS000039714] the figure was above 300 µM; with `O=C(CN(Cc1ccccc1)C(=O)CCC(=O)Nc1ccccn1)NCc1ccc(F)cc1`, 58.8 µM.
